From patent publication EP4653441A1, “SALT OF ANTIDEPRESSANT COMPOUND, AND PREPARATION METHOD THEREFOR, PHARMACEUTICAL COMPOSITION CONTAINING SAME AND USE THEREOF” (Vigonvita Life Sciences Co., Ltd., priority 2023, dated 2024)
Converted amounts (≈) assume the structure as drawn. Where two headings read alike, the source gives them in different places.

What was measured:
[1] = Stability test of the salts (high temperature / high humidity, 14 days); format: physicochemical
Protocol: (§1) 3. Hygroscopicity Measurement Method: The test sample was placed for 24 hours at 25°C and 92.5% RH, and then the weight gain by moisture absorption was measured. 4. Stability Test Method: The test sample was placed in a suitable clean container for 14 days under a high temperature (60°C), or a high humidity (40°C, a relative humidity of 75%) condition, and it was sampled on day 0 and day 14 to detect the purity and impurities of the test sample.

[2] = Hygroscopicity measurement; format: physicochemical; settings: 25°C, 92.5% RH, 24 hours
Protocol: as §1

[3] = Solubility test in water by HPLC (external standard); format: physicochemical; settings: 37°C, shaken 30 minutes
Protocol: 1. X-ray Powder Diffraction (XRPD) Test Method: • Instrument: Bruker D8 advance X-ray polycrystalline diffractometer; Target: Cu-Kα (40 kV, 40 mA); Sample-to-detector distance: 30 cm; Scanning type: two-axis linkage; Scanning step width: 0.02°; Scanning range: 3°~40°; Scanning step: 0.1 s. • In general, diffraction angles (2θ values) in XRPD may produce errors within a range of ± 0.2°, and thus numerical values relating to diffraction angles in the present invention should be understood to also encompass numerical values within a range of about ± 0.2°. Therefore, the present invention not only covers the crystal form that completely matches the characteristic signal peak in the specific XRPD pattern, but also covers the crystal form that has an error of about ± 0.2° with the characteristic signal peak in the specific XRPD pattern. 2. Solubility Test Method: About 20 mg of the test sample was taken and placed in a 1.5 ml sample tube, added with 1 ml of water, then placed in a shaker, shaken at 37°C for 30 minutes, the sample tube was taken and centrifuged in a centrifuge for 2 minutes, and the supernatant was taken for HPLC analysis.

[4] = target: serotonin reuptake (Homo sapiens, UniProt P31645); settings: read-out: serotonin reuptake inhibition concentration (IC50); cited from earlier work
[5] = target: T1, 5-HT3 receptor (Homo sapiens, UniProt P46098); settings: cited from earlier work
T1 sequence (P46098 24-478): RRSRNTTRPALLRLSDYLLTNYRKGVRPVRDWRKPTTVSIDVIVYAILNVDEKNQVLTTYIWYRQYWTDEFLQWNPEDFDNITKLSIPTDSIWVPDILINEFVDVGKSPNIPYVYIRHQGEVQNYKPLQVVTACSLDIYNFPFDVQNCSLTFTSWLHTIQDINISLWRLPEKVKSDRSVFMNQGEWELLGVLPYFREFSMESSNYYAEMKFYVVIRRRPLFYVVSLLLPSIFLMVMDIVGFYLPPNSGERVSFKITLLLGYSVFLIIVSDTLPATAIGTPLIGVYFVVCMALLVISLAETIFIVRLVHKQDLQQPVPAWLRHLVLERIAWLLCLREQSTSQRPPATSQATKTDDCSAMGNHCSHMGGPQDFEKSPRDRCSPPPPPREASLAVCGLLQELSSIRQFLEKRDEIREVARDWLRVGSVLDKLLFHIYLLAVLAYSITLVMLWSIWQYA

[6] = cited from earlier work
[7] = 60°C/14 days (aluminum foil pouch)

Sequence of serotonin reuptake (P31645 whole entry): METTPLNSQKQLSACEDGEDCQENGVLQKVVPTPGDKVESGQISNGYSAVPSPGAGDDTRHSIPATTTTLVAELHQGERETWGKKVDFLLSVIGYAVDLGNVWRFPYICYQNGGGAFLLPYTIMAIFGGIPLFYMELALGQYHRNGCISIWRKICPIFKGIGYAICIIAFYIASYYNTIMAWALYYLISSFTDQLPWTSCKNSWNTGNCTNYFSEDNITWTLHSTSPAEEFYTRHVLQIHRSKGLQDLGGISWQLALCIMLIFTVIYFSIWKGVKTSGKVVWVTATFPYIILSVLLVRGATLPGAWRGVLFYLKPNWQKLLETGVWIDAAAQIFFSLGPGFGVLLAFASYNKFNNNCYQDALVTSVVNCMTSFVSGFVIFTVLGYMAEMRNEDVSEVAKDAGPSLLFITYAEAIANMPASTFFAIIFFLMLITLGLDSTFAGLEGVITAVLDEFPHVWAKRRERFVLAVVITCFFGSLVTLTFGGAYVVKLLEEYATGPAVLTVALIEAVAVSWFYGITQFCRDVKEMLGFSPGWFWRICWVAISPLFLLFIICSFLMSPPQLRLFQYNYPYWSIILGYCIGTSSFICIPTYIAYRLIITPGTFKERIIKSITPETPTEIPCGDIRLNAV

Row | Structure (SMILES) | Total Impurity (%) ([1]; 40°C/75% RH/14 days) | Total Impurity (%) ([1]; 60°C/14 days) | Total Impurity (%) [1, 7] [%] | Total Impurity (%) ([1]; Day 0) | weight gain by moisture absorption [2] | Solubility [3] [mg/mL] | also measured
1 | CN1CC2CN(c3ccc4ccccc4c3)CC2C1 (single isomer, unassigned) [Example 1, 2-methyl-5-(naphthalen-2-yl)octahydropyrrolo[3,4-c]pyrrole] | 0.15 | 0.19 | 0.19 | 0.13 | 1.6% | >100 | –
2 | CN1CC2CN(c3ccc4ccccc4c3)CC2C1 (single isomer, unassigned) [Example 2, 2-methyl-5-(naphthalen-2-yl)octahydropyrrolo[3,4-c]pyrrole] | 0.31 | 0.37 | 0.36 | 0.35 | 0.74% | 11 (≈ 43.6 mM) | –
3 | CN1CC2CN(c3ccc4ccccc4c3)CC2C1 (single isomer, unassigned) [Example 4, 2-methyl-5-(naphthalen-2-yl)octahydropyrrolo[3,4-c]pyrrole] | 0.44 | 0.22 | 0.24 | 0.21 | 6.74% | 3.5 (≈ 13.9 mM) | –
4 | CN1CC2CN(c3ccc4ccccc4c3)CC2C1 (single isomer, unassigned) [Example 5, 2-methyl-5-(naphthalen-2-yl)octahydropyrrolo[3,4-c]pyrrole] | – | – | – | – | 1.21% | 4 (≈ 15.9 mM) | –
5 | CN1CC2CN(c3ccc4ccccc4c3)CC2C1 (single isomer, unassigned) [Example 6, 2-methyl-5-(naphthalen-2-yl)octahydropyrrolo[3,4-c]pyrrole] | – | – | – | – | 1.26% | – | –
6 | CN1CC2CN(c3ccc4ccccc4c3)CC2C1 (single isomer, unassigned) [Example 7, 2-methyl-5-(naphthalen-2-yl)octahydropyrrolo[3,4-c]pyrrole] | 0.17 | 0.18 | 0.20 | 0.14 | 0.64% | 15 (≈ 59.4 mM) | –
7 | CN1CC2CN(c3ccc4ccccc4c3)CC2C1 (stereo not drawn) [Example 3, 2-methyl-5-(naphthalen-2-yl)octahydropyrrolo[3,4-c]pyrrole] | – | – | – | – | To be liquid | – | –
8 | CN1CC2CN(c3ccc4ccccc4c3)CC2C1 (stereo not drawn) [compound of formula (I), 2-methyl-5-(naphthalen-2-yl)octahydropyrrolo[3,4-c]pyrrole] | – | – | – | – | – | – | IC50 [4]: < 10 nM; Total Impurity (%) ([1]; 40°C/75% RH/14 days, listed as Basic compoun d): 0.41%; Total Impurity (%) ([1]; 60°C/14 days (aluminum foil pouch), listed as Basic compoun d): 0.31%; Total Impurity (%) ([1]; 60°C/14 days, listed as Basic compoun d): 0.23%; Total Impurity (%) ([1]; Day 0, listed as Basic compoun d): 0.15%; affinity for 5-HT3 receptor [5]: high affinity; Solubility ([3]; listed as basic compound of formula (I)): Almost Insoluble; Solubility [6]: low
